“Also recorded” adds a separate entry of the source. Where two headings read alike, the source gives them in different places.
Assays:
A549 cells [1] = assay: Cellular toxicity on A549 cells (CellTiter-Glo, cell numbers); format: cell-based; settings: 24 hours; up to 10 uM in FIG. 38
Method: Time to inhibition refers to the time needed to inhibit the generation of NADH by 15-PGDH from the moment with drug is added into the reaction mix. Delta™ refers to the shift in melting temperature of recombinant 15-PGDH in the presence of drug (with cofactor NADH also present). Concentration of Full Cell Line Reporter Induction refers to the concentration of drug that needs to be added to reporter cell line to achieve maximal induction of the 15-PGDH-luciferase gene fusion reporter cassette, as measured by luciferase assays. Hepatocyte stability refers to the half-life of compound in the presence of hepatocytes in culture. Toxicity refers to the concentration of compound needed to decrease cell numbers in a cell culture assay.
FIGS. 38(A-C) show assays of cellular toxicity on A549 cells at 24 hours of 15-PGDH inhibitors as assayed by CellTiter-Glo measurement.
FIGS. 84(A-C) show at left (84A) activity in lowering PGE2 levels in media of A549 cells that are stimulated to produce PGE2 by treatment with IL1-beta.

A549 cells [2] = assay: PGE2 levels in medium of IL1-beta stimulated A549 cells; format: cell-based; settings: IL1-beta stimulated A549 cells
[3] = Metabolic stability with murine liver S9; format: in vitro ADME
Method: SW054384 (2 mM in DMSO) was incubated with Murine S9 (Lot KWB) fraction and Phase I (NADPH Regenerating System) cofactors for 0-240 minutes. Reactions were quenched with a 1 mL (1:1) of MeOH/(+)IS/0.2% Formic Acid, vortexed for 15 seconds, incubated at RT for 10 minutes and spun for 5 minutes at 2400 rpms. […] Supernatant (800 μL) was transferred to an HPLC vial (w/out insert) and analyzed by HPLC/MS. A: dH2O+0.1% FA B: MeOH+0.1% FA
SW125991 (2 mM in DMSO) was incubated with Murine S9 (Lot KWB) fraction and Phase I (NADPH Regenerating System) cofactors for 0-240 minutes. Reactions were quenched with 1 mL (1:1) of methanol containing 0.2% formic acid and 100 ng/ml IS (IS final conc.=50 ng/ml). Samples were vortexed for 15 seconds, incubated at RT for 10 minutes and spun for 5 minutes at 2400 rpm. […] Supernatant (800 μL) was transferred to an HPLC vial (w/out insert). Analyzed by Qtrap 3200 mass spectrometer.

[4] = test system: 15-PGDH-luciferase fusion reporter in V9m, LS174T and V503 cell lines; assay: 15-PGDH-luciferase fusion gene reporter induction in three colon cancer cell lines (stated jointly); format: cell-based
[5] = target: recombinant 15-PGDH protein (Homo sapiens (Human), UniProt P15428); assay: Inhibition of enzymatic activity of recombinant 15-PGDH in vitro; format: biochemical; settings: for inhibition at […]: read-out: Enzyme inhibition % ([…]), recombinant 15-PGDH, […] compound;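 on all read-outs here: activity of recombinant human 15-PGDH assayed in vitro using PGE2 as the substrate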
recombinant 15-PGDH protein, sequence (P15428 whole entry): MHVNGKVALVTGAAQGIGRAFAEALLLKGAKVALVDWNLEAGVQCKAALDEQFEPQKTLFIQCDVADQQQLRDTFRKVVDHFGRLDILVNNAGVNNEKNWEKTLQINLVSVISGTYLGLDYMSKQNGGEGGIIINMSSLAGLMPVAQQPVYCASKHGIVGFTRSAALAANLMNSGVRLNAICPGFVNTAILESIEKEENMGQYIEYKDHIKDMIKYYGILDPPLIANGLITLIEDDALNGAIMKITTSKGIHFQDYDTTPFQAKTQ

[6] = test system: wild-type mouse bone marrow; assay: Hematopoietic colonies from bone marrow treated ex vivo; format: cell-based; settings: 1 uM, ex vivo on ice for 2 hours; compared with SW033291
Text: Treated marrow is again then plated into methylcellulose for counting of hematopoietic colonies.

Row | inhibition at […] ([5]; read-out: Enzyme inhibition % (2.5 μM)) [%] | inhibition at […] ([5]; read-out: Enzyme inhibition % (7.5 μM)) [%] | Compound | Toxicity, CellTiter-Glo (A549 cells [1]) | Effect on PGE2 levels in medium, in words (A549 cells [2]) | Metabolic stability, in words [3] | Induction of 15-PGDH-luciferase reporter, in words [4] | Inhibition of recombinant 15-PGDH, in words [5] | Increase in bone marrow derived colonies, in words [6]
1 | 11.6 | 31.6 | COc1ccc(OC)c(N(CC(=O)N2CCOCC2)S(=O)(=O)c2ccccc2)c1 [SW125991] | no toxicity | show activity in lowering PGE2 | marked improvement in metabolic stability | retains activity in induction of the 15-PGDH-luciferase reporter assay; also recorded: active in inducing the 15-PGDH-luciferase reporter | less inhibition of 15-PGDH at high compound concentration; also recorded: lesser inhibitory activity at high concentration | –
2 | – | – | CCCCC(C)(C)[C@H](O)/C=C/[C@H]1[C@H](O)CC(=O)[C@@H]1C/C=C\CCCC(=O)O [dmPGE2, 16,16-dimethyl PGE2] | – | – | – | – | – | slightly greater increase

From US10301320B2, “Compositions and methods of modulating 15-PGDH activity” (CASE WESTERN RESERVE UNIVERSITY, priority 2012, dated 2019)
